Results taken from PubChem BioAssay (NCI).
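In this assay, cells in 96-well plates receive the compound at five concentrations for 48 hours. Endpoints are linearly interpolated between the surrounding concentrations. TGI denotes the concentration required for complete inhibition of growth.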

Key:
Test in all cases: NCI tumour cell line growth inhibition, 48 h
[1] = test system: 786-0 renal
[2] = test system: K-562 leukemia
[3] = test system: NCI/ADR-RES ovarian
[4] = test system: SK-OV-3 ovarian
[5] = test system: UACC-257 melanoma
[6] = test system: NCI-H23 lung
[7] = test system: LOX IMVI melanoma
[8] = test system: UACC-62 melanoma
[9] = test system: MCF7 breast
[10] = test system: HS 578T breast
[11] = test system: ACHN renal
[12] = test system: MDA-N
[13] = test system: SK-MEL-2 melanoma
[14] = test system: SN12C renal
[15] = test system: NCI-H460 lung
[16] = test system: OVCAR-4 ovarian
[17] = test system: DU-145 prostate
[18] = test system: A498 renal
[19] = test system: HCT-116 colon
[20] = test system: MALME-3M melanoma
[21] = test system: RPMI-8226 leukemia
[22] = test system: KM12 colon
[23] = test system: OVCAR-8 ovarian
[24] = test system: BT-549 breast
[25] = test system: NCI-H522 lung
[26] = test system: A549 NSCLC
[27] = test system: EKVX NSCLC
[28] = test system: HOP-92 NSCLC
[29] = test system: RXF 393 renal
[30] = test system: HL-60(TB) leukemia
[31] = test system: SF-295 CNS
[32] = test system: SW-620 colon
[33] = test system: HCC-2998 colon
[34] = test system: OVCAR-5 ovarian
[35] = test system: M14 melanoma
[36] = test system: SK-MEL-28 melanoma
[37] = test system: HOP-62 NSCLC
[38] = test system: OVCAR-3 ovarian
[39] = test system: TK-10 renal
[40] = test system: HCT-15 colon
[41] = test system: UO-31 renal
[42] = test system: SNB-19 CNS
[43] = test system: HT29 colon
[44] = test system: SR leukemia
[45] = test system: CAKI-1 renal
[46] = test system: MOLT-4 leukemia
[47] = test system: SF-268 CNS
[48] = test system: T-47D breast
[49] = test system: SK-MEL-5 melanoma
[50] = test system: MDA-MB-435
[51] = test system: PC-3 prostate
[52] = test system: IGROV1 ovarian
[53] = test system: COLO 205 colon
[54] = test system: CCRF-CEM leukemia
[55] = test system: U251 CNS
[56] = test system: MDA-MB-231 breast
[57] = test system: NCI-H226 lung
[58] = test system: SNB-75 CNS
[59] = test system: SF-539 CNS

Measured: TGI

COc1c(O)cc(C(=O)O[C@@H]2Cc3c(O)cc(O)cc3O[C@@H]2c2cc(O)c(O)c(O)c2)cc1O
46.7 µM: [17] | [47]
65.2 µM: [24]
46.4 µM: [16]
66.7 µM: [15]
42 µM: [9]
33.3 µM: [50]
50.5 µM: [41]
86.2 µM: [40]
56.8 µM: [46]
51.2 µM: [26]
78.4 µM: [8]
95.8 µM: [44]
98.5 µM: [6]
46.8 µM: [2]
54.1 µM: [23]
92.3 µM: [37]
33.8 µM: [1]
40.2 µM: [7]
57.7 µM: [21]
61.6 µM: [27]
46.2 µM: [31]
35.4 µM: [19]
37.3 µM: [14]
37.1 µM: [43]
37.2 µM: [29]
58.4 µM: [12]
54.6 µM: [25]
44.3 µM: [49]
39 µM: [22]
59.8 µM: [32]
43 µM: [42]
63 µM: [30]
86 µM: [48]
not listed: [53] | [54] | [55] | [56] | [57] | [58] | [59]
> 100 µM: all other assays above

CP(C)(=S)P(C)(C)=S
not listed: [18] | [22] | [28] | [38] | [50]
> 100 µM: all other assays above
